{
  "source": "patent US9765056B2",
  "about": "“Indole and pyrrole compounds, a process for their preparation and pharmaceutical compositions containing them” (LES LABORATOIRES SERVIER, priority 2013, dated 2017)",
  "key": {"[1]": {"molecular_target": "Bcl-2 protein (histag-Bcl-2, UniProtKB P10415) (Homo sapiens (Human), UniProt P10415)", "sequence (P10415 whole entry)": "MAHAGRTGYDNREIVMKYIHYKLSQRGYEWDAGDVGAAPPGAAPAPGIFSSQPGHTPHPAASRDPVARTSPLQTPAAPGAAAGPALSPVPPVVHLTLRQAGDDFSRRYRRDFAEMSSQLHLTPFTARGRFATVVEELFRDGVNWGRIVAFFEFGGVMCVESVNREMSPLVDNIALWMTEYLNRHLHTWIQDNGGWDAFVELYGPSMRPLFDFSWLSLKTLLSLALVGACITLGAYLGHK", "test": "Inhibition of Bcl-2 by the fluorescence polarisation technique", "format": "binding", "settings": "fluorescence polarisation test; method A, or method B where underlined (underlining not visible); read-out: IC50 (nM) Bcl-2 FP", "source_text": "Inhibition of Bcl-2 by the fluorescence polarisation technique"}, "[2]": {"system": "RS4;11 leukaemia tumour line", "test": "In vitro cytotoxicity, Microculture Tetrazolium Assay (MTT)", "format": "cell-based", "settings": "Homo sapiens; RS4;11 cells, 48 hours exposure", "protocol": "The cytotoxicity studies were carried out on the RS4;11 leukaemia tumour line.\nThe cells are distributed onto microplates and exposed to the test compounds for 48 hours. The cell viability is then quantified by a colorimetric assay, the Microculture Tetrazolium Assay (Cancer Res., 1987, 47, 939-942)."}},
  "note": "Structures can show the parent of a compound that is named as a salt.",
  "data": [
    {"smiles": "CN1CCN(C[C@@H]2Cc3ccccc3CN2C(=O)c2ccc(Cl)cc2-n2cc(C(=O)N(c3ccc(O)cc3)c3ccc(Cl)cc3)c3ccccc32)CC1", "note": "[Example 76, 1-(5-Chloro-2-{[(3S)-3-[(4-methylpiperazin-1-yl)methyl]-3,4-dihydroisoquinolin-2(1H)-yl]carbonyl}phenyl)-N-(4-chlorophenyl)-N-(4-hydroxyphenyl)-1H-indole-3-carboxamide]", "values": [
      {"measurement": "IC50", "setting": "[1]", "result": 8.7, "unit": "nM"},
      {"measurement": "IC50", "setting": "[2]", "result": 151, "unit": "nM"}
    ]},
    {"smiles": "CN1CCN(C[C@@H]2Cc3ccccc3CN2C(=O)c2cc3c(cc2-n2cc(C(=O)N(c4ccccc4)c4ccccc4)c4ccccc42)OCO3)CC1", "note": "[Example 177, 1-{6-[(3S)-3-[(4-Methylpiperazin-1-yl)methyl]-1,2,3,4-tetrahydroisoquinoline-2-carbonyl]-2H-1,3-benzodioxol-5-yl}-N,N-diphenyl-1H-indole-3-carboxamide dihydrochloride]", "values": [
      {"measurement": "IC50", "setting": "[1]", "result": 18.8, "unit": "nM"},
      {"measurement": "IC50", "setting": "[2]", "result": 568, "unit": "nM"}
    ]},
    {"smiles": "CNc1ccc(-n2nc(C(=O)N(c3ccccc3)c3ccccc3)c3ccccc32)c(C(=O)N2Cc3ccccc3C[C@H]2CN)c1", "note": "[Example 140, 1-{2-[(3S)-3-(Aminomethyl)-1,2,3,4-tetrahydroisoquinoline-2-carbonyl]-4-(methylamino)phenyl}-N,N-diphenyl-1H-indazole-3-carboxamide]", "values": [
      {"measurement": "IC50", "setting": "[1]", "result": 25, "unit": "nM"},
      {"measurement": "IC50", "setting": "[2]", "result": 1840, "unit": "nM"}
    ]},
    {"smiles": "CN1CCN(C[C@@H]2Cc3ccccc3CN2C(=O)c2cc3c(cc2-n2cc(C(=O)N(c4ccc(O)cc4)c4ccc5[nH]ccc5c4)c4cc(Cl)ccc42)OCO3)CC1", "note": "[Example 88, 5-Chloro-N-(4-hydroxyphenyl)-N-(1H-indol-5-yl)-1-(6-{[(3S)-3-[(4-methylpiperazin-1-yl)methyl]-3,4-dihydroisoquinolin-2(1H)-yl]carbonyl}-1,3-benzodioxol-5-yl)-1H-indole-3-carboxamide]", "values": [
      {"measurement": "IC50", "setting": "[1]", "result": 19.6, "unit": "nM"},
      {"measurement": "IC50", "setting": "[2]", "result": 541, "unit": "nM"}
    ]},
    {"smiles": "CN(C)C[C@@H]1Cc2ccccc2CN1C(=O)c1cc2c(cc1-n1cc(C(=O)N(c3ccccc3)c3ccc(O)cc3)c3ccccc31)OCO2", "note": "[Example 180, 1-{6-[(3S)-3-[(Dimethylamino)methyl]-1,2,3,4-tetrahydroisoquinoline-2-carbonyl]-2H-1,3-benzodioxol-5-yl}-N-(4-hydroxyphenyl)-N-phenyl-1H-indole-3-carboxamide hydrochloride]", "values": [
      {"measurement": "IC50", "setting": "[1]", "result": 11, "unit": "nM"},
      {"measurement": "IC50", "setting": "[2]", "result": 210, "unit": "nM"}
    ]},
    {"smiles": "NC[C@@H]1Cc2ccccc2CN1C(=O)c1ccccc1-n1cc(C(=O)N(c2ccccc2)c2ccccc2)c2ccccc21", "note": "[Example 123, 1-{2-[(3S)-3-(Aminomethyl)-1,2,3,4-tetrahydroisoquinoline-2-carbonyl]-phenyl}-N,N-diphenyl-1H-indole-3-carboxamide]", "values": [
      {"measurement": "IC50", "setting": "[1]", "result": 90, "unit": "nM"},
      {"measurement": "IC50", "setting": "[2]", "result": 2370, "unit": "nM"}
    ]},
    {"smiles": "CN(C)C[C@@H]1Cc2ccccc2CN1C(=O)c1ccccc1-n1cc(C(=O)N(c2ccccc2)c2ccc(O)cc2)c2ccccc21", "note": "[Example 143, 1-{2-[(3S)-3-[(Dimethylamino)methyl]-1,2,3,4-tetrahydroisoquinoline-2-carbonyl]phenyl}-N-(4-hydroxyphenyl)-N-phenyl-1H-indole-3-carboxamide]", "values": [
      {"measurement": "IC50", "setting": "[1]", "result": 71.5, "unit": "nM"},
      {"measurement": "IC50", "setting": "[2]", "result": 533, "unit": "nM"}
    ]},
    {"smiles": "Cc1ccc(N(C(=O)c2cn(-c3cc4c(cc3C(=O)N3Cc5ccccc5C[C@H]3CN3CCN(C)CC3)OCO4)c3ccccc23)c2ccc(O)cc2)cc1", "note": "[Example 32, N-(4-Hydroxyphenyl)-N-(4-methylphenyl)-1-(6-{[(3S)-3-[(4-methylpiperazin-1-yl)methyl]-3,4-dihydroisoquinolin-2(1H)-yl]carbonyl}-1,3-benzodioxol-5-yl)-1H-indole-3-carboxamide]", "values": [
      {"measurement": "IC50", "setting": "[1]", "result": 3.5, "unit": "nM"},
      {"measurement": "IC50", "setting": "[2]", "result": 63.7, "unit": "nM"}
    ]},
    {"smiles": "CN(C)C[C@@H]1Cc2ccccc2CN1C(=O)c1ccc(Cl)cc1-n1cc(C(=O)N(c2ccccc2)c2ccc(O)cc2)c2ccccc21", "note": "[Example 179, 1-{5-Chloro-2-[(3S)-3-[(dimethylamino)methyl]-1,2,3,4-tetrahydroisoquinoline-2-carbonyl]phenyl}-N-(4-hydroxyphenyl)-N-phenyl-1H-indole-3-carboxamide hydrochloride]", "values": [
      {"measurement": "IC50", "setting": "[1]", "result": 18.1, "unit": "nM"},
      {"measurement": "IC50", "setting": "[2]", "result": 886, "unit": "nM"}
    ]},
    {"smiles": "COc1cc(-n2cc(C(=O)N(c3ccc(O)cc3)c3ccc(F)cc3)c3ccccc32)c(C(=O)N2Cc3ccccc3C[C@H]2CN2CCN(C)CC2)cc1O", "note": "[Example 201, N-(4-Fluorophenyl)-1-{4-hydroxy-5-methoxy-2-[(3S)-3-[(4-methylpiperazin-1-yl)methyl]-1,2,3,4-tetrahydroisoquinoline-2-carbonyl]phenyl}-N-(4-hydroxyphenyl)-1H-indole-3-carboxamide dihydrochloride]", "values": [
      {"measurement": "IC50", "setting": "[1]", "result": 3.1, "unit": "nM"},
      {"measurement": "IC50", "setting": "[2]", "result": 124, "unit": "nM"}
    ]},
    {"smiles": "Cc1cc(C(=O)N(c2ccccc2)c2ccc(O)cc2)cn1-c1cc(Cl)c(F)cc1C(=O)N1Cc2ccccc2C[C@H]1CN1CCN(C)CC1", "note": "[Example 28, 1-(5-Chloro-4-fluoro-2-{[(3S)-3-[(4-methylpiperazin-1-yl)methyl]-3,4-dihydroisoquinolin-2(1H)-yl]carbonyl}phenyl)-N-(4-hydroxyphenyl)-5-methyl-N-phenyl-1H-pyrrole-3-carboxamide]", "values": [
      {"measurement": "IC50", "setting": "[1]", "result": 8, "unit": "nM"},
      {"measurement": "IC50", "setting": "[2]", "result": 378, "unit": "nM"}
    ]},
    {"smiles": "O=C(c1cn(-c2ccccc2C(=O)N2Cc3ccccc3C[C@H]2CN2CCCCC2)c2ccccc12)N(c1ccccc1)c1ccc(O)cc1", "note": "[Example 173, N-(4-Hydroxyphenyl)-N-phenyl-1-{2-[(3S)-3-(piperidin-1-ylmethyl)-1,2,3,4-tetrahydroisoquinoline-2-carbonyl]phenyl}-1H-indole-3-carboxamide]", "values": [
      {"measurement": "IC50", "setting": "[1]", "result": 168, "unit": "nM"},
      {"measurement": "IC50", "setting": "[2]", "result": 2040, "unit": "nM"}
    ]},
    {"smiles": "Cc1cc(C(=O)N(c2ccc(O)cc2)c2ccc3[nH]ccc3c2)cn1-c1ccccc1C(=O)N1Cc2ccccc2C[C@H]1CN(C)C", "note": "[Example 23, 1-(2-{[(3S)-3-[(Dimethylamino)methyl]-3,4-dihydroisoquinolin-2(1H)-yl]carbonyl}phenyl)-N-(4-hydroxyphenyl)-N-(1H-indol-5-yl)-5-methyl-1H-pyrrole-3-carboxamide]", "values": [
      {"measurement": "IC50", "setting": "[1]", "result": 26.1, "unit": "nM"},
      {"measurement": "IC50", "setting": "[2]", "result": 445, "unit": "nM"}
    ]},
    {"smiles": "CN1CCN(C[C@@H]2Cc3ccccc3CN2C(=O)c2cc3c(cc2-n2cc(C(=O)N(c4ccc(O)cc4)c4ccc5c(c4)CCN5)c4ccccc42)OCO3)CC1", "note": "[Example 47, N-(2,3-Dihydro-1H-indol-5-yl)-N-(4-hydroxyphenyl)-1-(6-{[(3S)-3-[(4-methylpiperazin-1-yl)methyl]-3,4-dihydroisoquinolin-2(1H)-yl]carbonyl}-1,3-benzodioxol-5-yl)-1H-indole-3-carboxamide]", "values": [
      {"measurement": "IC50", "setting": "[1]", "result": 9.2, "unit": "nM"},
      {"measurement": "IC50", "setting": "[2]", "result": 50.3, "unit": "nM"}
    ]},
    {"smiles": "Cc1cc(C(=O)N(c2ccc(O)cc2)c2ccc3c(ccn3C)c2)cn1-c1cc2c(cc1C(=O)N1Cc3ccccc3C[C@H]1CN1CCCC1)OCO2", "note": "[Example 105, N-(4-Hydroxyphenyl)-5-methyl-N-(1-methyl-1H-indol-5-yl)-1-(6-{[(3S)-3-(pyrrolidin-1-ylmethyl)-3,4-dihydroisoquinolin-2(1H)-yl]carbonyl}-1,3-benzodioxol-5-yl)-1H-pyrrole-3-carboxamide hydrochloride]", "values": [
      {"measurement": "IC50", "setting": "[1]", "result": 13.6, "unit": "nM"},
      {"measurement": "IC50", "setting": "[2]", "result": 202, "unit": "nM"}
    ]},
    {"smiles": "CN1CCN(C[C@@H]2Cc3ccccc3CN2C(=O)c2ccc(Br)cc2-n2cc(C(=O)N(c3ccc(O)cc3)c3ccc(Cl)cc3)c3ccccc32)CC1", "note": "[Example 59, 1-(5-Bromo-2-{[(3S)-3-[(4-methylpiperazin-1-yl)methyl]-3,4-dihydroisoquinolin-2(1H)-yl]carbonyl}phenyl)-N-(4-chlorophenyl)-N-(4-hydroxyphenyl)-1H-indole-3-carboxamide]", "values": [
      {"measurement": "IC50", "setting": "[1]", "result": 19.2, "unit": "nM"},
      {"measurement": "IC50", "setting": "[2]", "result": 206, "unit": "nM"}
    ]},
    {"smiles": "Cc1cc(C(=O)N(c2ccc(O)cc2)c2ccc3[nH]ccc3c2)cn1-c1cc(Br)ccc1C(=O)N1Cc2ccccc2C[C@H]1CN1CCCC1", "note": "[Example 104, 1-(5-Bromo-2-{[(3S)-3-(pyrrolidin-1-ylmethyl)-3,4-dihydroisoquinolin-2(1H)-yl]carbonyl}phenyl)-N-(4-hydroxyphenyl)-N-(1H-indol-5-yl)-5-methyl-1H-pyrrole-3-carboxamide]", "values": [
      {"measurement": "IC50", "setting": "[1]", "result": 18.8, "unit": "nM"},
      {"measurement": "IC50", "setting": "[2]", "result": 383, "unit": "nM"}
    ]},
    {"smiles": "COc1cc(-n2cc(C(=O)N(c3ccccc3)c3ccc(O)cc3)c3ccccc32)c(C(=O)N2Cc3ccccc3C[C@H]2CN)cc1O", "note": "[Example 145, 1-{2-[(3S)-3-(Aminomethyl)-1,2,3,4-tetrahydroisoquinoline-2-carbonyl]-4-hydroxy-5-methoxyphenyl}-N-(4-hydroxyphenyl)-N-phenyl-1H-indole-3-carboxamide]", "values": [
      {"measurement": "IC50", "setting": "[1]", "result": 12.2, "unit": "nM"},
      {"measurement": "IC50", "setting": "[2]", "result": 1180, "unit": "nM"}
    ]},
    {"smiles": "NC[C@@H]1Cc2ccccc2CN1C(=O)c1ccccc1-n1nc(C(=O)N(c2ccccc2)c2ccc(O)cc2)c2ccccc21", "note": "[Example 148, 1-{2-[(3S)-3-(Aminomethyl)-1,2,3,4-tetrahydroisoquinoline-2-carbonyl]-phenyl}-N-(4-hydroxyphenyl)-N-phenyl-1H-indazole-3-carboxamide]", "values": [
      {"measurement": "IC50", "setting": "[1]", "result": 28.3, "unit": "nM"},
      {"measurement": "IC50", "setting": "[2]", "result": 1170, "unit": "nM"}
    ]},
    {"smiles": "CN1CCN(C[C@@H]2Cc3ccccc3CN2C(=O)c2cc3c(cc2-n2cc(C(=O)N(CCc4ccccc4)c4ccc(O)cc4)c4ccccc42)OCO3)CC1", "note": "[Example 40, N-(4-Hydroxyphenyl)-1-(6-{[(3S)-3-[(4-methylpiperazin-1-yl)methyl]-3,4-dihydroisoquinolin-2(1H)-yl]carbonyl}-1,3-benzodioxol-5-yl)-N-(2-phenylethyl)-1H-indole-3-carboxamide]", "values": [
      {"measurement": "IC50", "setting": "[1]", "result": 7.8, "unit": "nM"},
      {"measurement": "IC50", "setting": "[2]", "result": 167, "unit": "nM"}
    ]},
    {"smiles": "COc1cc(C(=O)N2Cc3ccccc3C[C@H]2CN2CCN(C)CC2)c(-n2cc(C(=O)N(c3ccccc3)c3ccc(O)cc3)c3ccccc32)cc1Cl", "note": "[Example 167, 1-{5-Chloro-4-methoxy-2-[(3S)-3-[(4-methylpiperazin-1-yl)methyl]-1,2,3,4-tetrahydroisoquinoline-2-carbonyl]phenyl}-N-(4-hydroxyphenyl)-N-phenyl-1H-indole-3-carboxamide]", "values": [
      {"measurement": "IC50", "setting": "[1]", "result": 37.4, "unit": "nM"},
      {"measurement": "IC50", "setting": "[2]", "result": 984, "unit": "nM"}
    ]}
  ]
}
